In US6100254A, “Inhibitors of protein tyrosine kinases” (Board of Regents, The University of Texas System, priority 1997, dated 2000):
Where a name gives a salt, the structure may show the parent alone. *1 amine or outer side, *2 acyl side, *3 side chain or, on linkers, in order; H or OH if unused. Where a SMILES comes first, the peptide text is derived from it. Bridges are numbered along the chain shown (N, C = ends). Roman numbers before positions name the chains, in order. [ ]: non-standard residue; d: D form. Actinocin(9to1) = Cc1c2oc3c(C)ccc(C(=O)[*:1])c3nc-2c(C(=O)[*:2])c(N)c1=O; NMeV = CN[C@H](C(=O)O)C(C)C; Sar = CNCC(=O)O

Tests used:
[1] = human, in vivo; cited from earlier work
[2] = cited from earlier work; for elimination half-life: intravenous
[3] = biological target: Src; conditions: Table 10, published peptides as inhibitors of Src; cited from earlier work
[4] = biological target: T1, Abl (Bcr-Abl catalytic domain) (Homo sapiens, UniProt P00519); assay: Abl tyrosine kinase activity, poly E4Y and 32P-ATP; assay type: biochemical
T1 construct: Abl (Bcr-Abl catalytic domain); glutathione-S-transferase (GST) (N); made in house; host or cells: E. coli
T1 sequence (P00519 242-493 limits assumed): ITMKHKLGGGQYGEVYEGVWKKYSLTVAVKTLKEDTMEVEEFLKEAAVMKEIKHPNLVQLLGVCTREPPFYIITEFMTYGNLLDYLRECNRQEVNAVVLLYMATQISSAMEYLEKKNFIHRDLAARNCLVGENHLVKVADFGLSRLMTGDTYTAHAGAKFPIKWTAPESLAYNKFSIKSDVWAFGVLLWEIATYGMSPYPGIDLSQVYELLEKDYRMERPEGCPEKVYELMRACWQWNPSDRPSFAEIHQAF
From the text: (§1) The genes encoding Csk, Lck, Abl, and the FGF receptor have all been cloned. The genes encoding Csk, Abl, and the FGF receptor were cloned from humans, and the genes encoding Lck were cloned from a mouse. Recombinant Csk, Lck, Abl, and the FGFr were expressed as glutathione-S-transferase fusion proteins using the pGEX expression vector and E. coli, and purified as described (Sun et al., 1995).
(§2) Recombinant Src was expressed using the baculovirus-insect cell system and purified as published (Budde et al, 1993). Recombinant Csk, Lck, Abl, and the FGFr were expressed as glutathione-S-transferase fusion proteins using the pGEX expression vector and E. coli, and purified as described (Sun and Budde, 1995).
(§3) The tyrosine kinase activity of Src, Lck (p56^lck), Csk (C-Src kinase), Abl (Bcr-Abl catalytic domain), and the FGFr (fibroblast growth factor receptor catalytic domain), was determined using poly E4 Y and ^32 P-ATP.

[5] = biological target: hexokinase (HXK); assay: Enzyme panel: hexokinase; assay type: biochemical
[6] = test system: AFB-13 normal human fibroblasts; assay: Growth of AFB-13 cells, control for cellular toxicity; assay type: cell-based
Method: (§4) For these assays 2×10^4 cells are plated in 24 well multiwell tissue culture dishes, in 1 ml of DME/F12 media supplemented with 5% fetal bovine serum. After 24 h, media is replaced with fresh media containing the concentration of inhibitor to be tested, or no inhibitor as a control. Cells are counted 1, 3, and 5 days subsequent to addition of inhibitor. For the day 5 counts, media with fresh inhibitor is used to replace spent media after day 3. […] For counting viable cells, cultures are trypsinized, stained with trypan blue, and cell number determined by counting under light microscopy with the use of a hemacytometer. Benzodiazepine derivatives were tested at their maximally soluble concentrations in 0.1% DMSO diluted with tissue culture medium, and serial dilutions were made thereof. Every concentration tested was performed in triplicate, in identical wells under identical assay conditions.

[7] = biological target: T2, Src (Homo sapiens, UniProt P12931); assay: Src tyrosine kinase activity, poly E4Y and 32P-ATP; assay type: biochemical; conditions: for Ki: Table 10, benzodiazepines as inhibitors of Src
T2 construct: made in house; host or cells: baculovirus-insect cell system
Method: The compounds within the library were screened at a concentration of 100 μM using the following assay procedure. A 10 μL aliquot of poly(Glu:Tyr, 4:1) to final concentration of 200 μg/mL, 20 μL of benzodiazepine to be tested, 10 μL of purified Src and 10 μL of [gamma-^32 P]-ATP-MgCl2 cocktail (final concentration of 0.2 mM ATP; specific activity of 600 dpm/pmol, and 6 mM MgCl2) were mixed and incubated in 0.5 mL test tubes at ambient temperature. After 30 min, a 35 μL aliquot was spotted onto a 1×1 inch 3 MM filter paper and dropped into a 5% TCA bath at 60° C. The filter papers were washed 3 times with 5% TCA and air dried. The filter papers were then placed into a vial, 3 mL scintillation cocktail added, and analyzed by liquid scintillation counting.
as §3

[8] = biological target: T3, Csk (C-Src kinase) (Homo sapiens, UniProt P41240); assay: Csk tyrosine kinase activity, poly E4Y and 32P-ATP; assay type: biochemical
T3 construct: glutathione-S-transferase (GST) (N); made in house; host or cells: E. coli
From the text: as §1, §2, §3

[9] = test system: HT-29 colon adenocarcinoma cells; assay: Anchorage-independent growth, soft agar colony formation; assay type: cell-based, human
Method: Soft agar colony formation is used to determine anchorage independent growth, an in vitro parameter which correlates well with tumorigenicity of HT 29 cells. (AFB-13 cells are unable to form soft agar colonies, a characteristic of normal cells). These assays are performed in 6 well ([…]) multiwell tissue culture dishes. The wells are underlayed with 1% low melting agarose in complete growth media, and refrigerated for 15 min. 1×10^3 HT 29 cells are then added to the wells in complete media in 0.5% low melting agarose. […] After a 24 h incubation period, 0.5 mL of media containing compound to be tested (or media alone as a control) is added to the dish. During the assay, media with or without the test compound is replenished every 3 days. Colonies estimated to contain >100 cells are counted after 14 days. For compounds that induce growth inhibition, the assay is continued to 28 days to assure that differences in colony forming ability were not due to altered growth rate of cells. For initial screening, assays are performed in duplicate for each compound to be tested, due to the large amount of inhibitor required for the length of the study.

[10] = biological target: protein kinase A (PKA) (Homo sapiens, UniProt P17612); assay: Enzyme panel: protein kinase A; assay type: biochemical
[11] = test system: HT-29 colon adenocarcinoma cells; assay: Growth of HT-29 cells, viable cell count; assay type: cell-based, human; conditions: viable cell count 5 days after plating
Method: as §4

[12] = biological target: T4, Lck (p56^lck) (Mus musculus, UniProt P06240); assay: Lck tyrosine kinase activity, poly E4Y and 32P-ATP; assay type: biochemical
T4 construct: glutathione-S-transferase (GST) (N); made in house; host or cells: E. coli
From the text: as §1, §2, §3

[13] = biological target: FGFr (fibroblast growth factor receptor catalytic domain); assay: FGFr tyrosine kinase activity, poly E4Y and 32P-ATP; assay type: biochemical, human
From the text: as §1, §2, §3

[14] = cited from earlier work
[15] = oral administration, multiple myeloma; cited from earlier work
[16] = previously untreated chronic myelogenous leukemia; cited from earlier work
[17] = Homo sapiens, Fibroblast, 120 h, viable cell count 5 days after plating
[18] = Homo sapiens, HT-29, 336 h, colonies ≥100 cells 14 days after plating

T2 sequence (P12931 whole entry, species assumed): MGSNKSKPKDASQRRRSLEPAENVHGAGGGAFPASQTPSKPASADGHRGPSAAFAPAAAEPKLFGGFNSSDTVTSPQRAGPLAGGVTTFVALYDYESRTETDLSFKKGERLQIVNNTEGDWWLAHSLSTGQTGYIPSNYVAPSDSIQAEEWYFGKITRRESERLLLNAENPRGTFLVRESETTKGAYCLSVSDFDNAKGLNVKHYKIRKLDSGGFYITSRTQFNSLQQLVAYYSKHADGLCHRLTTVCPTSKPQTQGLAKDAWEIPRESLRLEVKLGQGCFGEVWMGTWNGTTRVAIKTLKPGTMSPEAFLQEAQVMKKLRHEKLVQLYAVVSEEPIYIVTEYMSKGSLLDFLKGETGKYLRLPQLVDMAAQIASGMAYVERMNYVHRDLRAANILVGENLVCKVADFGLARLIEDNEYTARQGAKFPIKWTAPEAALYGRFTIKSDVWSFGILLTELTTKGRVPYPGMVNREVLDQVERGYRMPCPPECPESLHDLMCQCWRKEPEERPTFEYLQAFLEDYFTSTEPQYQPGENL
T4 sequence (P06240 whole entry): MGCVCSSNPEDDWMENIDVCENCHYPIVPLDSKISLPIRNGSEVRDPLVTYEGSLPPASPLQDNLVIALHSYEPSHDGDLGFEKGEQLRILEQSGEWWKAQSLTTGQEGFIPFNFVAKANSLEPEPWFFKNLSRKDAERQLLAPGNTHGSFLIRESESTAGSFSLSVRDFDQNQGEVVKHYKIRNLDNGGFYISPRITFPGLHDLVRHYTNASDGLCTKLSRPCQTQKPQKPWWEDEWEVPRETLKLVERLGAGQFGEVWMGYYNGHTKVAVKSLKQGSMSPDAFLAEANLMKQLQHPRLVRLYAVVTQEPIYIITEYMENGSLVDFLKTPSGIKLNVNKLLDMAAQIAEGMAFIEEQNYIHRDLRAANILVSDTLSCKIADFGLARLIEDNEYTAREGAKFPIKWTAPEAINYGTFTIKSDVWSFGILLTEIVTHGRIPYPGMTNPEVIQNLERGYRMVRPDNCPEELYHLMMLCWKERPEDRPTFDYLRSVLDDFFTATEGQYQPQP
T3 sequence (P41240 whole entry): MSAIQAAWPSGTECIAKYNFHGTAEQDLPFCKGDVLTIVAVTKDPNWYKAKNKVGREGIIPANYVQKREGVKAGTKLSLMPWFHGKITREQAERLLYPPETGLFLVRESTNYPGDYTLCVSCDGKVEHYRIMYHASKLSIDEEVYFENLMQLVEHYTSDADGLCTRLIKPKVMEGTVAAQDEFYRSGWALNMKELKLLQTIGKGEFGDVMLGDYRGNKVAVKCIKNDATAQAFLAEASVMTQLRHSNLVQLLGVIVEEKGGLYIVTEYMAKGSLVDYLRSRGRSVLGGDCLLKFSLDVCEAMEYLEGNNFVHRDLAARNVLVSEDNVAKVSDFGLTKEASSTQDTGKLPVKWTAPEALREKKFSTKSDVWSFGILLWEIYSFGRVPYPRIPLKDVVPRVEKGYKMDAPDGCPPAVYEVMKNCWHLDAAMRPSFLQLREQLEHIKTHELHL

In the case of `CO[C@@]12[C@H](COC(N)=O)C3=C(C(=O)C(C)=C(N)C3=O)N1C[C@@H]1N[C@@H]12` [Mitomycin], the “dose excreted unchanged in the urine” value [1] is given as “Approximately 10%”.
In the case of `COc1cccc2c1C(=O)c1c(O)c3c(c(O)c1C2=O)C[C@@](O)(C(=O)CO)C[C@@H]3O[C@H]1C[C@H](N)[C@H](O)[C@H](C)O1` [Doxorubicin, 5,12-Naphthacenedione, (8s-cis)-10-[(3-amino-2,3,6-trideoxy-α-L-lyxo-hexopyranosyl)oxy]-7,8,9,10-tetrahydro-6,8,11-trihydroxy-8-(hydroxyacetyl)-1-methoxy-hydrochloride], the oral absorption ([2]; in vivo) is given as “absorbed poorly”, the “secreted into the bile” value ([2]; in vivo) is given as “Forty to 50” and the elimination half-life [2] is given as “about 30 hr”.
In the case of RRLIEDAEYAARG, the Ki [3] is listed as 10000 µM.
`O=C1[C@H](Cc2ccc(O)cc2)N=C(c2ccc(O)cc2)c2cc(Cl)ccc2N1Cc1ccccc1` [L-Tyr,Bnz] gave an IC50 [4] of 931 µM, an IC50 [5] of 352 µM and an activity at 3 µM [6, 17] of 100 ± 4%. For the same compound, the activity at 15 µM ([6]; Homo sapiens, Fibroblast, 120 h, 15 μM, viable cell count 5 days after plating) was 92 ± 6%, the activity at 30 µM ([6]; Homo sapiens, Fibroblast, 120 h, 30 μM, viable cell count 5 days after plating) was 92 ± 8% and the “inhibition of growth of AFB-13 normal fibroblasts” value ([6]; same concentrations (up to 30 μM)) was “no inhibition”. It also gave an IC50 [7] of 190 µM, a Ki [7] of 74 µM and an IC50 [8] of 404 µM. The “inhibition of colony formation of HT-29 colon adenocarcinoma cells” value ([9]; 30 μM) was “complete inhibition”, the activity at 3 µM [9, 18] was 52% and the activity at 15 µM ([9]; Homo sapiens, HT-29, 336 h, 15 μM, colonies ≥100 cells 14 days after plating) was 11%. The activity at 30 µM ([9]; Homo sapiens, HT-29, 336 h, 30 μM, colonies ≥100 cells 14 days after plating) was 0%, the IC50 [10] was 124 µM and the activity at 3 µM ([11]; Homo sapiens, HT-29, 120 h) was 100 ± 3%. The activity at 15 µM ([11]; Homo sapiens, HT-29, 120 h, 15 μM) was 84 ± 6%, the activity at 30 µM ([11]; Homo sapiens, HT-29, 120 h, 30 μM) was 73 ± 9% and the IC50 [12] was 570 µM. It also gave an IC50 [13] of 418 µM.
`O=C1[C@@H](Cc2ccc(O)cc2)N=C(c2ccc(O)cc2)c2cc(Cl)ccc2N1Cc1ccc(-c2ccccc2)cc1` [D-Tyr,BnzPh, 7-chloro-1,3-dihydro-1-(-4-biphenylmethyl)-3-(-4-hydroxyphenylmethyl)-5-(4-hydroxyphenyl)-(2H)1,4-benzodiazepin-2-one] gave an activity at 3 µM [6, 17] of 89 ± 6%, an activity at 16 µM ([6]; Homo sapiens, Fibroblast, 120 h, 16 μM, viable cell count 5 days after plating) of 100 ± 4% and an activity at 32 µM ([6]; Homo sapiens, Fibroblast, 120 h, 32 μM, viable cell count 5 days after plating) of 100 ± 7%. For the same compound, the IC50 [7] was 97 µM, the Ki [7] was 43 µM and the IC50 [8] was 404 µM. It also gave an activity at 3 µM [9, 18] of 94%, an activity at 16 µM ([9]; Homo sapiens, HT-29, 336 h, 16 μM, colonies ≥100 cells 14 days after plating) of 90% and an activity at 32 µM ([9]; Homo sapiens, HT-29, 336 h, 32 μM, colonies ≥100 cells 14 days after plating) of 100%. The IC50 [10] was 54 µM, the “HT-29 Growth” value ([11]; 32 μM) was “cytotoxic” and the activity at 3 µM ([11]; Homo sapiens, HT-29, 120 h) was 94 ± 9%. For the same compound, the activity at 16 µM ([11]; Homo sapiens, HT-29, 120 h, 16 μM) was 74 ± 5%, the IC50 [12] was 640 µM and the IC50 [13] was 335 µM.
In the case of `O=C(O)CCCc1ccc(N(CCCl)CCCl)cc1` [Chlorambucil, 4-[bis(2-chlorethyl)amino]benzenebutanoic acid], the “terminal half-life of the parent drug” value ([2]; single oral doses of 0.6-[…]) is listed as 1.5 h.
In the case of `N.N.[Cl][Pt][Cl]` [Cisplatin], the oral absorption ([2]; in vivo) is listed as “not absorbed orally”.
In the case of `O=NN(CCCl)C(=O)NC1CCCCC1` [Lomustine, 1-(2-chloro-ethyl)-3-cyclohexyl-1 nitrosourea], the “radioactivity excreted as degradation products within 24 hours” value ([2]; oral radioactive drug, 30 mg/m^2 to 100 mg/m^2) is given as “about half”, the “solubility in absolute alcohol” value ([14]; absolute alcohol) is given as 70 mg per ml and the solubility in water ([14]; water) is given as under 0.05 mg per ml.
In the case of “4-[bis(2-chloroethyl)amino]-L-phenylalanine [Melphalan]”, the “patients showing a favorable response” value [15] is listed as “one third to one half”.
For `Cc1c2oc3c(C)ccc(C(=O)N[C@@H]4C(=O)N[C@H](C(C)C)C(=O)N5CCC[C@H]5C(=O)N(C)CC(=O)N(C)[C@@H](C(C)C)C(=O)O[C@@H]4C)c3nc-2c(C(=O)N[C@@H]2C(=O)N[C@H](C(C)C)C(=O)N3CCC[C@H]3C(=O)N(C)CC(=O)N(C)[C@@H](C(C)C)C(=O)O[C@@H]2C)c(N)c1=O` [Actinomycin D] (I: T[dV]P[Sar][NMeV] / II: T[dV]P[Sar][NMeV]; ester I:1-I:C, II:1-II:C; linker I:N-II:N via Actinocin(9to1)), the “dose excreted intact into the bile” value ([2]; in vivo) is listed as “Half” and the “passage of the blood-brain barrier” value ([2]; in vivo) is listed as “does not pass the blood-brain barrier”.
In the case of EEIYGEFE, the Ki [3] is listed as 70 µM.
In the case of `COc1cccc2c1C(=O)c1c(O)c3c(c(O)c1C2=O)C[C@@](O)(C(C)=O)C[C@@H]3O[C@H]1C[C@H](N)[C@H](O)[C@H](C)O1` [Daunorubicin, 5,12-Naphthacenedione, (8S-cis)-8-acetyl-10-[(3-amino-2,3,6-trideoxy-α-L-lyxo-hexanopyranosyl)oxy]-7,8,9,10-tetrahydro-6,8,11-trihydroxy-10-methoxy-, hydrochloride], the oral absorption ([2]; in vivo) is listed as “poor” and the elimination half-life [2] is listed as “about 19 hr”.
In the case of KKSRGDYMTMQIG, the Ki [3] is listed as 200 µM.
For RDRVYVHPF, the Ki [3] is listed as 2600 µM.
In the case of YIYGSFK, the Ki [3] is given as 1600 µM.
For EFEYAFF, the Ki [3] is listed as 130 µM.
In the case of DRVYVHPF, the Ki [3] is given as 3100 µM.
For `CS(=O)(=O)OCCCCOS(C)(=O)=O` [Busulfan, 1,4-butanediol dimethanesulfonate], the “adults obtaining hematologic remission” value [16] is given as “Approximately 90%”.
